# Results published in PubChem BioAssay AID1259407 (Chemical Carcinogenesis Research Information System (CCRIS), 2018).
# Active and inactive are the calls of the source. The rule behind the calls is not given here.
# Tested on: CCRIS mutagenicity, Ames/micronucleus/aberration tests
# Test: CCRIS mutagenicity studies
# [1] = Test System: AMES SALMONELLA TYPHIMURIUM, Strain/Indicator: TA98, Metabolic Activation: NONE, Method: PREINCUBATION
# [2] = Test System: AMES SALMONELLA TYPHIMURIUM, Strain/Indicator: TA98, Metabolic Activation: NONE, Method: STANDARD PLATE
# [3] = Test System: AMES SALMONELLA TYPHIMURIUM, Strain/Indicator: TA100, Metabolic Activation: NONE, Method: PREINCUBATION
# [4] = Test System: AMES SALMONELLA TYPHIMURIUM, Strain/Indicator: TA100, Metabolic Activation: NONE, Method: STANDARD PLATE
# [5] = Test System: AMES SALMONELLA TYPHIMURIUM, Strain/Indicator: TA1535, Metabolic Activation: NONE, Method: STANDARD PLATE
# [6] = Test System: AMES SALMONELLA TYPHIMURIUM, Strain/Indicator: TA1537, Metabolic Activation: NONE, Method: STANDARD PLATE
structure (smiles),measurement,setting,value
C[Si](C)(C)Cl,mutagenic call,"Test System: AMES SALMONELLA TYPHIMURIUM, Strain/Indicator: TA98, Metabolic Activation: HAMSTER, LIVER, S-9, AROCLOR 1254, Method: PREINCUBATION",inactive; negative
same,mutagenic call,[1],inactive; negative
same,mutagenic call,[2],inactive; negative
same,mutagenic call,"Test System: AMES SALMONELLA TYPHIMURIUM, Strain/Indicator: TA98, Metabolic Activation: RAT LIVER S-9, AROCLOR 1254, Method: STANDARD PLATE",inactive; negative
same,mutagenic call,"Test System: AMES SALMONELLA TYPHIMURIUM, Strain/Indicator: TA98, Metabolic Activation: RAT, LIVER, S-9, AROCLOR 1254, Method: PREINCUBATION",inactive; negative
same,mutagenic call,"Test System: AMES SALMONELLA TYPHIMURIUM, Strain/Indicator: TA100, Metabolic Activation: HAMSTER, LIVER, S-9, AROCLOR 1254, Method: PREINCUBATION",inactive; negative
same,mutagenic call,[3],inactive; negative
same,mutagenic call,[4],inactive; negative
same,mutagenic call,"Test System: AMES SALMONELLA TYPHIMURIUM, Strain/Indicator: TA100, Metabolic Activation: RAT LIVER S-9, AROCLOR 1254, Method: STANDARD PLATE",inactive; negative
same,mutagenic call,"Test System: AMES SALMONELLA TYPHIMURIUM, Strain/Indicator: TA100, Metabolic Activation: RAT, LIVER, S-9, AROCLOR 1254, Method: PREINCUBATION",inactive; negative
same,mutagenic call,"Test System: AMES SALMONELLA TYPHIMURIUM, Strain/Indicator: TA1535, Metabolic Activation: HAMSTER, LIVER, S-9, AROCLOR 1254, Method: PREINCUBATION",inactive; negative
same,mutagenic call,"Test System: AMES SALMONELLA TYPHIMURIUM, Strain/Indicator: TA1535, Metabolic Activation: NONE, Method: PREINCUBATION",inactive; negative
same,mutagenic call,[5],inactive; negative
same,mutagenic call,"Test System: AMES SALMONELLA TYPHIMURIUM, Strain/Indicator: TA1535, Metabolic Activation: RAT LIVER S-9, AROCLOR 1254, Method: STANDARD PLATE",inactive; negative
same,mutagenic call,"Test System: AMES SALMONELLA TYPHIMURIUM, Strain/Indicator: TA1535, Metabolic Activation: RAT, LIVER, S-9, AROCLOR 1254, Method: PREINCUBATION",inactive; negative
same,mutagenic call,"Test System: AMES SALMONELLA TYPHIMURIUM, Strain/Indicator: TA1537, Metabolic Activation: HAMSTER, LIVER, S-9, AROCLOR 1254, Method: PREINCUBATION",inactive; negative
same,mutagenic call,"Test System: AMES SALMONELLA TYPHIMURIUM, Strain/Indicator: TA1537, Metabolic Activation: NONE, Method: PREINCUBATION",inactive; negative
same,mutagenic call,[6],inactive; negative
same,mutagenic call,"Test System: AMES SALMONELLA TYPHIMURIUM, Strain/Indicator: TA1537, Metabolic Activation: RAT LIVER S-9, AROCLOR 1254, Method: STANDARD PLATE",inactive; negative
same,mutagenic call,"Test System: AMES SALMONELLA TYPHIMURIUM, Strain/Indicator: TA1537, Metabolic Activation: RAT, LIVER, S-9, AROCLOR 1254, Method: PREINCUBATION",inactive; negative
same,mutagenic call,"Test System: AMES SALMONELLA TYPHIMURIUM, Strain/Indicator: TA1538, Metabolic Activation: HAMSTER, LIVER, S-9, AROCLOR 1254, Method: PREINCUBATION",inactive; negative
same,mutagenic call,"Test System: AMES SALMONELLA TYPHIMURIUM, Strain/Indicator: TA1538, Metabolic Activation: NONE, Method: PREINCUBATION",inactive; negative
same,mutagenic call,"Test System: AMES SALMONELLA TYPHIMURIUM, Strain/Indicator: TA1538, Metabolic Activation: NONE, Method: STANDARD PLATE",inactive; negative
same,mutagenic call,"Test System: AMES SALMONELLA TYPHIMURIUM, Strain/Indicator: TA1538, Metabolic Activation: RAT LIVER S-9, AROCLOR 1254, Method: STANDARD PLATE",inactive; negative
same,mutagenic call,"Test System: AMES SALMONELLA TYPHIMURIUM, Strain/Indicator: TA1538, Metabolic Activation: RAT, LIVER, S-9, AROCLOR 1254, Method: PREINCUBATION",inactive; negative
same,mutagenic call,"Test System: E. COLI, Strain/Indicator: P3078 POLA, Metabolic Activation: NONE, Method: SPOT TEST",inactive; negative
same,mutagenic call,"Test System: E. COLI, Strain/Indicator: P3078 POLA, Metabolic Activation: RAT LIVER S-9, AROCLOR 1254, Method: SPOT TEST",inactive; negative
same,mutagenic call,"Test System: E. COLI, Strain/Indicator: W3110, Metabolic Activation: NONE, Method: SPOT TEST",inactive; negative
same,mutagenic call,"Test System: E. COLI, Strain/Indicator: W3110, Metabolic Activation: RAT LIVER S-9, AROCLOR 1254, Method: SPOT TEST",inactive; negative
same,mutagenic call,"Test System: MOUSE LYMPHOMA, Strain/Indicator: L5178Y (TK+/TK-), Metabolic Activation: RAT, LIVER, S-9, AROCLOR 1254, Method: SUSPENSION/PLATE",inactive; negative. reevaluation of results: negative
same,mutagenic call,"Test System: MOUSE LYMPHOMA, Strain/Indicator: L5178Y (TK+/TK-), Metabolic Activation: RAT, LIVER, S-9, Method: SUSPENSION/PLATE",inactive; negative
O=C(Cl)OCc1ccccc1,mutagenic call,[2],inactive; negative
same,mutagenic call,"Test System: AMES SALMONELLA TYPHIMURIUM, Strain/Indicator: TA98, Metabolic Activation: RAT, LIVER, S-9, AROCLOR 1254, Method: STANDARD PLATE",inactive; negative
same,mutagenic call,[4],inactive; negative
same,mutagenic call,"Test System: AMES SALMONELLA TYPHIMURIUM, Strain/Indicator: TA100, Metabolic Activation: RAT, LIVER, S-9, AROCLOR 1254, Method: STANDARD PLATE",inactive; negative
same,mutagenic call,[5],inactive; negative
same,mutagenic call,"Test System: AMES SALMONELLA TYPHIMURIUM, Strain/Indicator: TA1535, Metabolic Activation: RAT, LIVER, S-9, AROCLOR 1254, Method: STANDARD PLATE",inactive; negative
same,mutagenic call,[6],inactive; negative
same,mutagenic call,"Test System: AMES SALMONELLA TYPHIMURIUM, Strain/Indicator: TA1537, Metabolic Activation: RAT, LIVER, S-9, AROCLOR 1254, Method: STANDARD PLATE",inactive; negative
O=[N+]([O-])c1ccc2c(c1)Oc1ccc([N+](=O)[O-])cc1O2,mutagenic call,"Test System: AMES SALMONELLA TYPHIMURIUM, Strain/Indicator: TA98(1,8-DNP6), Metabolic Activation: NONE, Method: PREINCUBATION",active; positive
same,mutagenic call,"Test System: AMES SALMONELLA TYPHIMURIUM, Strain/Indicator: TA98(1,8-DNP6), Metabolic Activation: NONE, Method: SUSPENSION",active; positive
same,mutagenic call,"Test System: AMES SALMONELLA TYPHIMURIUM, Strain/Indicator: TA98(1,8-DNP6), Metabolic Activation: RAT, LIVER, S-9, PCB (5%), Method: PREINCUBATION",active; positive
same,mutagenic call,"Test System: AMES SALMONELLA TYPHIMURIUM, Strain/Indicator: TA98(NR), Metabolic Activation: NONE, Method: PREINCUBATION",inactive; negative
same,mutagenic call,"Test System: AMES SALMONELLA TYPHIMURIUM, Strain/Indicator: TA98(NR), Metabolic Activation: NONE, Method: SUSPENSION",active; positive
same,mutagenic call,"Test System: AMES SALMONELLA TYPHIMURIUM, Strain/Indicator: TA98(NR), Metabolic Activation: RAT, LIVER, S-9 (15%), Method: PREINCUBATION",active; positive
same,mutagenic call,"Test System: AMES SALMONELLA TYPHIMURIUM, Strain/Indicator: TA98(NR), Metabolic Activation: RAT, LIVER, S-9, 3-METHYLCHOLANTHRENE (15%), Method: PREINCUBATION",active; positive
same,mutagenic call,"Test System: AMES SALMONELLA TYPHIMURIUM, Strain/Indicator: TA98(NR), Metabolic Activation: RAT, LIVER, S-9, BETA-NAPHTHOFLAVONE (15%), Method: PREINCUBATION",active; positive
same,mutagenic call,"Test System: AMES SALMONELLA TYPHIMURIUM, Strain/Indicator: TA98(NR), Metabolic Activation: RAT, LIVER, S-9, PCB (5 OR 15%), Method: PREINCUBATION",active; positive
same,mutagenic call,"Test System: AMES SALMONELLA TYPHIMURIUM, Strain/Indicator: TA98(NR), Metabolic Activation: RAT, LIVER, S-9, PHENOBARBITAL (15%), Method: PREINCUBATION",active; positive
same,mutagenic call,[1],active; positive
same,mutagenic call,"Test System: AMES SALMONELLA TYPHIMURIUM, Strain/Indicator: TA98, Metabolic Activation: NONE, Method: SUSPENSION",active; positive
same,mutagenic call,"Test System: AMES SALMONELLA TYPHIMURIUM, Strain/Indicator: TA98, Metabolic Activation: RAT, LIVER, S-9, PCB (5%), Method: PREINCUBATION",active; positive
same,mutagenic call,"Test System: AMES SALMONELLA TYPHIMURIUM, Strain/Indicator: TA98, Metabolic Activation: RAT, LIVER, S-9, PCB, Method: SUSPENSION",active; positive
same,mutagenic call,[3],inactive; negative
same,mutagenic call,"Test System: AMES SALMONELLA TYPHIMURIUM, Strain/Indicator: TA100, Metabolic Activation: NONE, Method: SUSPENSION",inactive; negative
same,mutagenic call,"Test System: AMES SALMONELLA TYPHIMURIUM, Strain/Indicator: TA100, Metabolic Activation: RAT, LIVER, S-9, PCB, Method: PREINCUBATION",inactive; negative
same,mutagenic call,"Test System: AMES SALMONELLA TYPHIMURIUM, Strain/Indicator: TA100, Metabolic Activation: RAT, LIVER, S-9, PCB, Method: SUSPENSION",inactive; negative
